From ChEMBL document CHEMBL3784925, “Discovery of a New Inhibitor of Myeloid Differentiation 2 from Cinnamamide Derivatives with Anti-Inflammatory Activity in Sepsis and Acute Lung Injury” (J Med Chem, 2016)
The source made the active and inactive calls. The rule behind the calls is not given here.

Key:
[1] = Cmax in Sprague-Dawley rat plasma at 10 mg/kg, iv measured immediately post treatment by UPLC analysis; type: ADME, organism-based; design: dose 10 mg/kg, route intravenous
[2] = molecular target: Mitogen-activated protein kinase 9 (Homo sapiens) (UniProt P45984); assay: Inhibition of recombinant human N-terminal GST-tagged JNK2 catalytic domain (1 to 364 residues) expressed in Escherichia coli using modified erktide as substrate at 0.05 to 50 uM after 1 hr by microfluidic assay
Mus musculus [3] = assay: Antiinflammatory activity in acute lung injury C57BL/6 mouse model assessed as inhibition of LPS-induced thickening of alveolar wall at 20 mg/kg, po treated 15 mins before LPS challenge measured after 6 hrs by hematoxylin and eosin staining based light microscopic analysis; type: functional, organism-based
[4] = molecular target: Mitogen-activated protein kinase 14 (Homo sapiens) (UniProt Q16539); assay: Inhibition of recombinant human N-terminal GST-tagged p38-alpha (9 to 352 residues) expressed in Escherichia coli using modified erktide as substrate at 0.05 to 50 uM after 1 hr by microfluidic assay
[5] = molecular target: Toll-like receptor 2 (Mus musculus) (UniProt Q9QUN7); assay: Inhibition of TLR2 in mouse RAW264.7 cells assessed as inhibition of Pam3CK-induced TNF-alpha level at 5 to 10 uM preincubated for 2 hrs followed by Pam3CK addition measured after 12 hrs by ELISA; type: cell-based
Mus musculus [6] = assay: Antiinflammatory activity in acute lung injury C57BL/6 mouse model assessed as inhibition of LPS-induced macrophage infilteration by measuring reduction in CD68 expression in lung tissues at 20 mg/kg, po treated 15 mins before LPS challenge measured after 6 hrs by DAB staining based immunohistochemical analysis; type: functional, organism-based
[7] = molecular target: Mitogen-activated protein kinase 11 (Homo sapiens) (UniProt Q15759); assay: Inhibition of full length recombinant human N-terminal GST-tagged p38-beta (1 to 364 residues) expressed in Escherichia coli using modified erktide as substrate at 0.05 to 50 uM after 1 hr by microfluidic assay
[8] = Cmax in Sprague-Dawley rat plasma at 10 mg/kg, iv after 24 hrs by UPLC analysis; type: ADME, organism-based; design: dose 10 mg/kg, route intravenous
Mus musculus [9] = assay: Antiinflammatory activity in acute lung injury C57BL/6 mouse model assessed as inhibition of LPS-induced TNF-alpha mRNA expression in lung tissues at 20 mg/kg, po treated 15 mins before LPS challenge measured after 6 hrs; type: functional, organism-based
[10] = molecular target: Toll-like receptor 2 (Mus musculus) (UniProt Q9QUN7); assay: Inhibition of TLR2 in mouse RAW264.7 cells assessed as inhibition of Pam3CK-induced IL-6 level at 5 to 10 uM preincubated for 2 hrs followed by Pam3CK addition measured after 12 hrs by ELISA; type: cell-based
Mus musculus [11] = assay: Antiinflammatory activity in acute lung injury C57BL/6 mouse model assessed as inhibition of LPS-induced infiltration of inflammatory cells at 20 mg/kg, po treated 15 mins before LPS challenge measured after 6 hrs by hematoxylin and eosin staining based light microscopic analysis; type: functional, organism-based
Mus musculus [12] = assay: Antiinflammatory activity in acute lung injury C57BL/6 mouse model assessed as inhibition of LPS-induced MPO activity in lung tissues at 20 mg/kg, po treated 15 mins before LPS challenge measured after 6 hrs; type: functional, organism-based
Mus musculus [13] = assay: Antiinflammatory activity in acute lung injury C57BL/6 mouse model assessed as inhibition of LPS-induced increase in protein concentration in bronchoalveolar lavage fluid at 20 mg/kg, po treated 15 mins before LPS challenge measured after 6 hrs; type: functional, organism-based
Mus musculus [14] = assay: Antiinflammatory activity in acute lung injury C57BL/6 mouse model assessed as inhibition of LPS-induced pulmonary congestion at 20 mg/kg, po treated 15 mins before LPS challenge measured after 6 hrs by hematoxylin and eosin staining based light microscopic analysis; type: functional, organism-based
Mus musculus [15] = assay: Antiinflammatory activity in acute lung injury C57BL/6 mouse model assessed as inhibition of LPS-induced IL-1beta mRNA expression in lung tissues at 20 mg/kg, po treated 15 mins before LPS challenge measured after 6 hrs; type: functional, organism-based
Mus musculus [16] = assay: Antiinflammatory activity in acute lung injury C57BL/6 mouse model assessed as inhibition of LPS-induced interstitial edema at 20 mg/kg, po treated 15 mins before LPS challenge measured after 6 hrs by hematoxylin and eosin staining based light microscopic analysis; type: functional, organism-based
Mus musculus [17] = assay: In vivo inhibition of LPS-induced MD2/TLR4 complex formation in lung tissues of acute lung injury C57BL/6 mouse model at 20 mg/kg, po treated 15 mins before LPS challenge measured after 6 hrs by immunoprecipitation assay; type: functional, organism-based
[18] = Cmax in Sprague-Dawley rat plasma at 20 mg/kg, po after 12 hrs by UPLC analysis; type: ADME, organism-based; design: dose 20 mg/kg, route oral
Mus musculus [19] = assay: Antiinflammatory activity in acute lung injury C57BL/6 mouse model assessed as inhibition of LPS-induced increase in neutrophil level in bronchoalveolar lavage fluid at 20 mg/kg, po treated 15 mins before LPS challenge measured after 6 hrs by wright-gimesa staining based assay; type: functional, organism-based
[20] = Cytotoxicity against C57BL/6 mouse primary peritoneal macrophages assessed as reduction in cell viability at 10 uM after 24 hrs by MTT assay; type: cell-based; details: peritoneal macrophage cell
[21] = molecular target: T1, Inhibitor of nuclear factor kappa-B kinase subunit beta (Homo sapiens) (UniProt O14920); assay: Inhibition of recombinant human N-terminal His-tagged IKKbeta (1 to 662 residues) expressed in baculovirus expression system using modified IkBalpha-derived peptide as substrate at 0.05 to 50 uM after 1 hr by microfluidic assay
T1 sequence (whole entry): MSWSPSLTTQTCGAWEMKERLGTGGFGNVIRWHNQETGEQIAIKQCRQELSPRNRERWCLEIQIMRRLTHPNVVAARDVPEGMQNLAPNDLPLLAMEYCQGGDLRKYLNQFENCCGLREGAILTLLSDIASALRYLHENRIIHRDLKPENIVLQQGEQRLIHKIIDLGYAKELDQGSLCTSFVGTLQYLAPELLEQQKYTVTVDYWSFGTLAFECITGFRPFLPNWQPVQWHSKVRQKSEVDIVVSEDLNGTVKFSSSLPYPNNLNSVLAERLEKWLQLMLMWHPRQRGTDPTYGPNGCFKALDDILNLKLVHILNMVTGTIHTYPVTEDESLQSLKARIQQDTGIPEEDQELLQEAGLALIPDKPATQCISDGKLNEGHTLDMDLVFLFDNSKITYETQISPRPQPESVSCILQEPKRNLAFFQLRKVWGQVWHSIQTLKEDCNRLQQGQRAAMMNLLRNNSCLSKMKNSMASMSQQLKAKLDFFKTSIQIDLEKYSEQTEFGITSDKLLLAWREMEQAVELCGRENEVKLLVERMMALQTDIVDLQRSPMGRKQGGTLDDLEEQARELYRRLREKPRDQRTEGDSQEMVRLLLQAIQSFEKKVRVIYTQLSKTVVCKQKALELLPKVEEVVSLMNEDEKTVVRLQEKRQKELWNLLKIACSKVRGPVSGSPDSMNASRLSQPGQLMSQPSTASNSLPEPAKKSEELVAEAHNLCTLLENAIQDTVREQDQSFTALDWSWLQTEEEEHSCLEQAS

Mus musculus [22] = assay: Antiinflammatory activity in acute lung injury C57BL/6 mouse model assessed as inhibition of LPS-induced increase in total cells in bronchoalveolar lavage fluid at 20 mg/kg, po treated 15 mins before LPS challenge measured after 6 hrs by cell counting method; type: functional, organism-based
[23] = Cmax in Sprague-Dawley rat plasma at 20 mg/kg, po measured immediately post treatment by UPLC analysis; type: ADME, organism-based; design: dose 20 mg/kg, route oral
[24] = molecular target: Mitogen-activated protein kinase 3 (Homo sapiens) (UniProt P27361); assay: Inhibition of full length recombinant human N-terminal GST-tagged ERK1 (1 to 379 residues) expressed in Escherichia coli using modified erktide as substrate at 0.05 to 50 uM after 1 hr by microfluidic assay
[25] = molecular target: Toll-like receptor 4 (Homo sapiens) (UniProt O00206); assay: Binding affinity to recombinant human TLR4 at 6.25 to 100 uM by surface plasmon resonance analysis
Mus musculus [26] = assay: Antiinflammatory activity in acute lung injury C57BL/6 mouse model assessed as inhibition of LPS-induced lung edema at 20 mg/kg, po treated 15 mins before LPS challenge measured after 6 hrs; type: functional, organism-based
Mus musculus [27] = assay: Antiinflammatory activity in LPS-induced septic shock C57BL/6 mouse model assessed as mouse survival at 10 mg/kg, iv treated 15 mins before LPS challenge measured for 7 days relative to control; type: functional; details: C57BL/6, iv
Mus musculus [28] = assay: Antiinflammatory activity in acute lung injury C57BL/6 mouse model assessed as inhibition of LPS-induced IL-6 mRNA expression in lung tissues at 20 mg/kg, po treated 15 mins before LPS challenge measured after 6 hrs; type: functional, organism-based

Sequence of Toll-like receptor 2 (Mus musculus) (Q9QUN7 whole entry): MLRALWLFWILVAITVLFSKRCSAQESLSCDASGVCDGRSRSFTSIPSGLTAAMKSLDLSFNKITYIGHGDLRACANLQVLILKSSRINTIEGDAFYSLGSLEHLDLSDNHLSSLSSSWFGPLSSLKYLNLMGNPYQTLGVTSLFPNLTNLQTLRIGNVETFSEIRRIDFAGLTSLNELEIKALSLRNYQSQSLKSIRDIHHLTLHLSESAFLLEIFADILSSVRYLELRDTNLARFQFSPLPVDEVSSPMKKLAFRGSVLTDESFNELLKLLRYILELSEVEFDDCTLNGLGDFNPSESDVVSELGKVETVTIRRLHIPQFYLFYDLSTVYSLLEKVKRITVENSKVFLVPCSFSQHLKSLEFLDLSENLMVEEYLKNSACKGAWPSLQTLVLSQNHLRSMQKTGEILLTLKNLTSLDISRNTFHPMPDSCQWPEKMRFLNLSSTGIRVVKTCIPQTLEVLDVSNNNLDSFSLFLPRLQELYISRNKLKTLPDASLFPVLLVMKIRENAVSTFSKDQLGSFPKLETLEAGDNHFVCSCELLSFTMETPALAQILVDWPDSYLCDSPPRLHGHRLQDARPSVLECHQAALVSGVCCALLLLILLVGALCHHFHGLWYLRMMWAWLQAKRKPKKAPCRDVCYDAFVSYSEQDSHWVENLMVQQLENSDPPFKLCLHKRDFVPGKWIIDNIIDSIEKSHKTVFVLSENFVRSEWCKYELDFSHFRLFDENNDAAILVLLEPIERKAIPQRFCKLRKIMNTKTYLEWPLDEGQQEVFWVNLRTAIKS
Sequence of Mitogen-activated protein kinase 11 (Homo sapiens) (Q15759 whole entry, the tested form may be a part): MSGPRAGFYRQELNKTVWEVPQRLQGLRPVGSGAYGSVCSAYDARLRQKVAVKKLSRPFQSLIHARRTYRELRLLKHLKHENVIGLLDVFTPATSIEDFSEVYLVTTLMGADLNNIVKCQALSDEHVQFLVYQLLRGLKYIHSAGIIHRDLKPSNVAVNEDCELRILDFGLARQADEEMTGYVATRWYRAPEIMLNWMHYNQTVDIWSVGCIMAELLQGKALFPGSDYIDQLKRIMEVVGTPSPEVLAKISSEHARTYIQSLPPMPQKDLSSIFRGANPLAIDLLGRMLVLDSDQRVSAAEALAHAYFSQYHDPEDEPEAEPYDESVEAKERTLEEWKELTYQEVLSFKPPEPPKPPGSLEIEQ
Sequence of Mitogen-activated protein kinase 14 (Homo sapiens) (Q16539 whole entry, the tested form may be a part): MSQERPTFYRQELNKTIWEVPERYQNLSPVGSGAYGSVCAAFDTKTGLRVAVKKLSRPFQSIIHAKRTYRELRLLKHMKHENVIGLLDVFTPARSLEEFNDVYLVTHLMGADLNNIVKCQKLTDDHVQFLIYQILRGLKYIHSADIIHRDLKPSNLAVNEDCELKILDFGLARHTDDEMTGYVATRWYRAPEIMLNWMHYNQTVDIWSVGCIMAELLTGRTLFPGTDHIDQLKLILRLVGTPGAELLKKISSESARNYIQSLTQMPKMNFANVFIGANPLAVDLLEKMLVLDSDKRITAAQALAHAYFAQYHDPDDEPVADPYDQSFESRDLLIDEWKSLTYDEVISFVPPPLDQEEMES
Sequence of Toll-like receptor 4 (Homo sapiens) (O00206 whole entry): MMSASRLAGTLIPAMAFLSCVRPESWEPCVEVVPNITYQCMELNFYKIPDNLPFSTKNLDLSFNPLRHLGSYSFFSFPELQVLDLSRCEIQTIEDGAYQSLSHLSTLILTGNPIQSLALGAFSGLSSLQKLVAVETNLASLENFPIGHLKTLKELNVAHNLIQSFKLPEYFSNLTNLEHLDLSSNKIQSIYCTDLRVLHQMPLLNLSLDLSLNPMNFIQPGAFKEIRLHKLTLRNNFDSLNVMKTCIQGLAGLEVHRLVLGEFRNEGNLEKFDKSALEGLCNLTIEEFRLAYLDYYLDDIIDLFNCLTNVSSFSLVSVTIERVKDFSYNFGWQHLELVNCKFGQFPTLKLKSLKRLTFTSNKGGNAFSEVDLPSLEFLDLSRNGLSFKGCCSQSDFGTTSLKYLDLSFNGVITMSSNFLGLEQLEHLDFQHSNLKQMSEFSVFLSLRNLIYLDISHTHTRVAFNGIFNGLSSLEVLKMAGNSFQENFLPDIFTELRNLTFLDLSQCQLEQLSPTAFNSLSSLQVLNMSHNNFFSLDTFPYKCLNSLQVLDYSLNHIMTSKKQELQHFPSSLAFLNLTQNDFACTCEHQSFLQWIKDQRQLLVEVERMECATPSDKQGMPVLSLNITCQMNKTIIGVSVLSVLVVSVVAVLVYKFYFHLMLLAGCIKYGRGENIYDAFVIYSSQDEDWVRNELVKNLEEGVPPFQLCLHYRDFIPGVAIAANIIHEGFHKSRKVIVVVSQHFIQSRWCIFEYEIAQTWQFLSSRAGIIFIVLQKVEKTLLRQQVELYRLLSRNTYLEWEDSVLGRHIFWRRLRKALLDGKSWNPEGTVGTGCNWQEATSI
Sequence of Mitogen-activated protein kinase 3 (Homo sapiens) (P27361 whole entry, the tested form may be a part): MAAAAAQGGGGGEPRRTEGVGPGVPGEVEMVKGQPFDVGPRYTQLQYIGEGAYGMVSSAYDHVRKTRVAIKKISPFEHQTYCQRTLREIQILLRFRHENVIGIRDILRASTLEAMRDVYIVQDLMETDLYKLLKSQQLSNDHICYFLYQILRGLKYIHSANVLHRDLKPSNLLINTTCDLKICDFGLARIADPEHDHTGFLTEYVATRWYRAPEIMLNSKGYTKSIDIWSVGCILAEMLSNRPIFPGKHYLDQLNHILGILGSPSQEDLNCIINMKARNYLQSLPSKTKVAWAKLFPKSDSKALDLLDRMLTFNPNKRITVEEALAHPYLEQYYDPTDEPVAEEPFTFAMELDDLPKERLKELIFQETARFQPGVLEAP
Sequence of Mitogen-activated protein kinase 9 (Homo sapiens) (P45984 whole entry, looked up, the tested form may be a part): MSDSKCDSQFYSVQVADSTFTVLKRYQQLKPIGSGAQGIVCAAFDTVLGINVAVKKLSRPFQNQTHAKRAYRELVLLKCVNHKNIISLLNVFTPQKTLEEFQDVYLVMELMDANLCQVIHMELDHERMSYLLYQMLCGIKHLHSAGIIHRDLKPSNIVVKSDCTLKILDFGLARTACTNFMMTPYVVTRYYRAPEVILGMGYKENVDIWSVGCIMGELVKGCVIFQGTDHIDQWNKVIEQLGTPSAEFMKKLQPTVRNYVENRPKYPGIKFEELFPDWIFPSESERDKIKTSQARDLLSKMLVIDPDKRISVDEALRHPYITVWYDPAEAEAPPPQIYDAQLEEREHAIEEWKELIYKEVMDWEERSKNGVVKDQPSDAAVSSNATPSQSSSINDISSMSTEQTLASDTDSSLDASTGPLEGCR

COc1ccc(/C=C/C(=O)NCCNC(=O)/C=C/c2ccc(OC)cc2OC)c(OC)c1
Cmax [1]: 550 ng/mL | inhibition [2]: inactive | inhibition (Mus musculus [3]): Active | inhibition [4]: inactive | inhibition [5]: inactive | inhibition (Mus musculus [6]): Active | inhibition [7]: inactive | Cmax [8]: 40 ng/mL | inhibition (Mus musculus [9]): Active | inhibition [10]: inactive | inhibition (Mus musculus [11]): Active | inhibition (Mus musculus [12]): Active | inhibition (Mus musculus [13]): Active | inhibition (Mus musculus [14]): Active | inhibition (Mus musculus [15]): Active | inhibition (Mus musculus [16]): Active | inhibition (Mus musculus [17]): Active | Cmax [18]: 40 ng/mL | inhibition (Mus musculus [19]): Active | Activity [20]: Non-toxic | inhibition [21]: inactive | inhibition (Mus musculus [22]): Active | Cmax [23]: 270 ng/mL | inhibition [24]: inactive | Activity [25]: inactive | inhibition (Mus musculus [26]): Active | survival at 10 mg/kg (Mus musculus [27]): 100% | inhibition (Mus musculus [28]): Active
